Source: PubChem BioAssay AID1919007 (Molecular Pharmacology Branch, DTP, NCI, 2023)
pIC50: −log10 of the molar value.

System: A498 complex spheroids with HUVEC/MSC, growth
Assay: Anticancer human tumor A498 cell line growth inhibition [AhR];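 also: seven day exposure starting three days after spheroid seeding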;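 as to viability, T/C: luminescence signal used as a surrogate for viable cells; luminescence viability scaled so 100% equals DMSO vehicle wells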
Conditions: for pIC50: curve of first compound; for viability, T/C: stronger effect = lower value
Source text: Multicellular complex tumor spheroid response to aryl hydrocarbon receptor antagonists in combination with a variety of drugs and investigational agents in selected tumor cell lines
The current study was undertaken to assess response to aryl hydrocarbon receptor antagonists in combination with standard-of-care drugs and investigational agents in solid tumor complex spheroid models. Complex spheroids include a stromal component modeled by human endothelial cells (HUVEC) and fibroblasts modeled by human mesenchymal stem cells (MSCs). The concentration ranges selected for each drug and investigational agent were based upon clinically achievable concentrations if the clinical Cmax of the agent was known.
Compounds. The drugs and investigational agents: BAY 2416964 (NSC825713), GNF351 (NSC835774), CH-223191 (NSC835775), CPI-455 (NSC825282), aza-TdCyd (NSC777586), decitabine (NSC127716), belinostat (NSC758774), entinostat (NSC756642), pevonedistat (NSC761192), tazemetostat (NSC777109), talazoparib (NSC765396), olaparib (NSC753686), selinexor (NSC780203), nedisertib (M3814, NSC802822), bortezomib (NSC756655), venetoclax (NSC766270), doxorubicin (NSC123127), elimusertib (BAY189344, NSC800525), ceralasertib (AZD6738, NSC777638), TAK-243 (NSC785004), alisertib (NSC759677), etoposide (NSC141540), topotecan (NSC609699), eribulin (NSC707389), gemcitabine (NSC613327), carboplatin (NSC241240), cisplatin (NSC119875), and SN-38 (NSC673596) were obtained from the National Cancer Institute (NCI) Developmental Therapeutics Program Chemical Repository (32). The FDA-approved anticancer drug set is available from the Developmental Therapeutics Program at https://dtp.cancer.gov/organization/dscb/obtaining/available plates.htm. […] The stock solutions were prepared in dimethyl sulfoxide (DMSO, Sigma-Aldrich, St. Louis, MO, cat. D2650), except for the platinum compounds which were prepared in saline (Quality Biological, Gaithersburg, MD, cat. 114-055-101), at 800-fold the tested concentration and stored at -70 degrees C prior to their use. All drugs and investigational agents were tested over a range starting from a high concentration at or near the clinical Cmax and decreasing in half-log increments. If the clinical Cmax for an agent had not been determined, the highest concentration tested was 10 microM (Table 1).
Cell Culture. All cells were maintained in an incubator at 37 degrees C and 5% CO2 with 95% humidity. The PDC lines were cultured according to standard operating procedures established by the NCI PDMR (https://pdmr.cancer.gov). Briefly, all PDCs were thawed and cultured in Matrigel-coated flasks prepared with a working solution of 1X Ham's F-12 nutrient mix, without supplementation (Invitrogen, Waltham, MA, cat. 11765054), 100 U/mL penicillin-streptomycin (Invitrogen, cat. 15140122), and 2.5% Matrigel (Corning Inc., Corning, NY, cat. 354248) for the first three passages. All PDCs were cultured in complete DMEM/F-12 media containing advanced DMEM/F-12 (Invitrogen, cat. 12634028), 4.9% defined fetal bovine serum, heat inactivated (HyClone Laboratories Inc., Logan, UT, cat. SH30070.03HI), 389 ng/mL hydrocortisone (Sigma-Aldrich, cat. H4001), 9.7 ng/mL human EGF recombinant protein (Invitrogen, cat. PHG0313), 23.4 microg/mL adenine (Sigma-Aldrich, cat. A2786), 97.3 U/mL penicillin-streptomycin (Invitrogen, cat. 15140122), 1.9 mM L-glutamine (Invitrogen, cat. 25030081), and 9.7 microM Y-27632 dihydrochloride (Tocris Bioscience, Bristol, United Kingdom, cat. 1254). The PDCs were cultured in complete DMEM/F12 media without 10 microM Y-27632 dihydrochloride for at least two passages prior to the screen. The established cell lines NCI-H1341 and […] were cultured in DMEM/F-12, HEPES (Invitrogen, cat. 11330032), 5% defined fetal bovine serum (HyClone Laboratories Inc., cat. SH30070.03), ITS premix universal culture supplement [insulin (5 microg/mL), transferrin (5 microg/mL), and selenious acid (5 ng/mL)] […]

[1] = second compound 0.1 µM, first compound 0.0316 µM
[2] = second compound 0.1 µM, first compound 0.1 µM
[3] = second compound 0.316 µM, first compound 0.0316 µM
[4] = second compound 0.316 µM, first compound 0.1 µM
[5] = second compound 1 µM, first compound 0.0316 µM
[6] = second compound 1 µM, first compound 0.1 µM
[7] = second compound 3.16 µM, first compound 0.0316 µM
[8] = second compound 3.16 µM, first compound 0.1 µM
[9] = second compound 10 µM, first compound 0.0316 µM
[10] = second compound 10 µM, first compound 0.1 µM

CC[C@@]1(O)C(=O)OCc2c1cc1n(c2=O)Cc2cc3c(CN(C)C)c(O)ccc3nc2-1 + CC(CO)NC(=O)c1cc(-c2ccc(Cl)cc2)nn(-c2cnn(C)c2)c1=O
pIC50 (second compound 0.1 µM): < 7.00
pIC50 (second compound 0.316 µM): < 7.00
pIC50 (second compound 1 µM): < 7.00
pIC50 (second compound 3.16 µM): < 7.00
pIC50 (second compound 10 µM): 7.12
viability, T/C (second compound 0.1 µM, first compound 0.000316 µM): 105%
viability, T/C (second compound 0.1 µM, first compound 0.001 µM): 98.4%
viability, T/C (second compound 0.1 µM, first compound 0.00316 µM): 103%
viability, T/C (second compound 0.1 µM, first compound 0.01 µM): 94.6%
viability, T/C [1]: 86.7%
viability, T/C [2]: 68.2%
viability, T/C (second compound 0.316 µM, first compound 0.000316 µM): 93.2%
viability, T/C (second compound 0.316 µM, first compound 0.001 µM): 102%
viability, T/C (second compound 0.316 µM, first compound 0.00316 µM): 96.4%
viability, T/C (second compound 0.316 µM, first compound 0.01 µM): 82.4%
viability, T/C [3]: 81.3%
viability, T/C [4]: 64.8%
viability, T/C (second compound 1 µM, first compound 0.000316 µM): 95.8%
viability, T/C (second compound 1 µM, first compound 0.001 µM): 106%
viability, T/C (second compound 1 µM, first compound 0.00316 µM): 100%
viability, T/C (second compound 1 µM, first compound 0.01 µM): 92.2%
viability, T/C [5]: 76.9%
viability, T/C [6]: 65.3%
viability, T/C (second compound 3.16 µM, first compound 0.000316 µM): 92%
viability, T/C (second compound 3.16 µM, first compound 0.001 µM): 87%
viability, T/C (second compound 3.16 µM, first compound 0.00316 µM): 88.6%
viability, T/C (second compound 3.16 µM, first compound 0.01 µM): 71.1%
viability, T/C [7]: 71.2%
viability, T/C [8]: 60.1%
viability, T/C (second compound 10 µM, first compound 0.000316 µM): 77%
viability, T/C (second compound 10 µM, first compound 0.001 µM): 74.2%
viability, T/C (second compound 10 µM, first compound 0.00316 µM): 76.6%
viability, T/C (second compound 10 µM, first compound 0.01 µM): 63.1%
viability, T/C [9]: 57.1%
viability, T/C [10]: 47.7%

CCc1c2c(nc3ccc(O)cc13)-c1cc3c(c(=O)n1C2)COC(=O)[C@]3(O)CC + CC(CO)NC(=O)c1cc(-c2ccc(Cl)cc2)nn(-c2cnn(C)c2)c1=O
pIC50 (second compound 0.1 µM): 7.72
pIC50 (second compound 0.316 µM): 7.80
pIC50 (second compound 1 µM): 7.72
pIC50 (second compound 3.16 µM): 7.80
pIC50 (second compound 10 µM): 8.33
viability, T/C (second compound 0.1 µM, first compound 0.000949 µM): 77.1%
viability, T/C (second compound 0.1 µM, first compound 0.003 µM): 77.9%
viability, T/C (second compound 0.1 µM, first compound 0.00949 µM): 61.7%
viability, T/C (second compound 0.1 µM, first compound 0.03 µM): 42.4%
viability, T/C (second compound 0.1 µM, first compound 0.0949 µM): 37.3%
viability, T/C (second compound 0.1 µM, first compound 0.3 µM): 33.1%
viability, T/C (second compound 0.316 µM, first compound 0.000949 µM): 70.8%
viability, T/C (second compound 0.316 µM, first compound 0.003 µM): 70.9%
viability, T/C (second compound 0.316 µM, first compound 0.00949 µM): 57.8%
viability, T/C (second compound 0.316 µM, first compound 0.03 µM): 40.7%
viability, T/C (second compound 0.316 µM, first compound 0.0949 µM): 36.4%
viability, T/C (second compound 0.316 µM, first compound 0.3 µM): 36.7%
viability, T/C (second compound 1 µM, first compound 0.000949 µM): 69.8%
viability, T/C (second compound 1 µM, first compound 0.003 µM): 72.3%
viability, T/C (second compound 1 µM, first compound 0.00949 µM): 62.6%
viability, T/C (second compound 1 µM, first compound 0.03 µM): 41.6%
viability, T/C (second compound 1 µM, first compound 0.0949 µM): 35.5%
viability, T/C (second compound 1 µM, first compound 0.3 µM): 34.1%
viability, T/C (second compound 3.16 µM, first compound 0.000949 µM): 58.8%
viability, T/C (second compound 3.16 µM, first compound 0.003 µM): 63.1%
viability, T/C (second compound 3.16 µM, first compound 0.00949 µM): 58.3%
viability, T/C (second compound 3.16 µM, first compound 0.03 µM): 39.8%
viability, T/C (second compound 3.16 µM, first compound 0.0949 µM): 30.5%
viability, T/C (second compound 3.16 µM, first compound 0.3 µM): 33.8%
viability, T/C (second compound 10 µM, first compound 0.000949 µM): 51.2%
viability, T/C (second compound 10 µM, first compound 0.003 µM): 53.3%
viability, T/C (second compound 10 µM, first compound 0.00949 µM): 46.6%
viability, T/C (second compound 10 µM, first compound 0.03 µM): 36.4%
viability, T/C (second compound 10 µM, first compound 0.0949 µM): 29.3%
viability, T/C (second compound 10 µM, first compound 0.3 µM): 31.8%

Nc1ccn(C2OC(CO)C(O)C2(F)F)c(=O)n1 (stereo not given) + CC(CO)NC(=O)c1cc(-c2ccc(Cl)cc2)nn(-c2cnn(C)c2)c1=O
pIC50 (second compound 0.1 µM): > 7.50
pIC50 (second compound 0.316 µM): > 7.50
pIC50 (second compound 1 µM): > 7.50
pIC50 (second compound 3.16 µM): > 7.50
pIC50 (second compound 10 µM): > 7.50
viability, T/C [1]: 26.1%
viability, T/C [2]: 25.7%
viability, T/C (second compound 0.1 µM, first compound 0.316 µM): 24.6%
viability, T/C (second compound 0.1 µM, first compound 1 µM): 35.1%
viability, T/C (second compound 0.1 µM, first compound 3.16 µM): 32.8%
viability, T/C (second compound 0.1 µM, first compound 10 µM): 29.9%
viability, T/C [3]: 27.5%
viability, T/C [4]: 25.8%
viability, T/C (second compound 0.316 µM, first compound 0.316 µM): 31%
viability, T/C (second compound 0.316 µM, first compound 1 µM): 32.3%
viability, T/C (second compound 0.316 µM, first compound 3.16 µM): 35%
viability, T/C (second compound 0.316 µM, first compound 10 µM): 28.3%
viability, T/C [5]: 25.6%
viability, T/C [6]: 29.8%
viability, T/C (second compound 1 µM, first compound 0.316 µM): 32.1%
viability, T/C (second compound 1 µM, first compound 1 µM): 30.2%
viability, T/C (second compound 1 µM, first compound 3.16 µM): 34.4%
viability, T/C (second compound 1 µM, first compound 10 µM): 29.2%
viability, T/C [7]: 27.6%
viability, T/C [8]: 26.1%
viability, T/C (second compound 3.16 µM, first compound 0.316 µM): 34.2%
viability, T/C (second compound 3.16 µM, first compound 1 µM): 33.7%
viability, T/C (second compound 3.16 µM, first compound 3.16 µM): 29.6%
viability, T/C (second compound 3.16 µM, first compound 10 µM): 27.8%
viability, T/C [9]: 33.2%
viability, T/C [10]: 30.1%
viability, T/C (second compound 10 µM, first compound 0.316 µM): 27%
viability, T/C (second compound 10 µM, first compound 1 µM): 29.5%
viability, T/C (second compound 10 µM, first compound 3.16 µM): 27.5%
viability, T/C (second compound 10 µM, first compound 10 µM): 24.1%
